Assays:
Type in all cases: cell-based
[1] = target: T1, human TLR8 (Homo sapiens, UniProt Q9NR97); experiment: TLR8 inhibition reporter assay (HEK-Blue SEAP); settings: HEK-Blue cells overexpressing human TLR8, stimulated with R848 15.9 μM, 22 hour incubation
T1 construct: host or cells: HEK-Blue cells
T1 sequence (Q9NR97 27-1041): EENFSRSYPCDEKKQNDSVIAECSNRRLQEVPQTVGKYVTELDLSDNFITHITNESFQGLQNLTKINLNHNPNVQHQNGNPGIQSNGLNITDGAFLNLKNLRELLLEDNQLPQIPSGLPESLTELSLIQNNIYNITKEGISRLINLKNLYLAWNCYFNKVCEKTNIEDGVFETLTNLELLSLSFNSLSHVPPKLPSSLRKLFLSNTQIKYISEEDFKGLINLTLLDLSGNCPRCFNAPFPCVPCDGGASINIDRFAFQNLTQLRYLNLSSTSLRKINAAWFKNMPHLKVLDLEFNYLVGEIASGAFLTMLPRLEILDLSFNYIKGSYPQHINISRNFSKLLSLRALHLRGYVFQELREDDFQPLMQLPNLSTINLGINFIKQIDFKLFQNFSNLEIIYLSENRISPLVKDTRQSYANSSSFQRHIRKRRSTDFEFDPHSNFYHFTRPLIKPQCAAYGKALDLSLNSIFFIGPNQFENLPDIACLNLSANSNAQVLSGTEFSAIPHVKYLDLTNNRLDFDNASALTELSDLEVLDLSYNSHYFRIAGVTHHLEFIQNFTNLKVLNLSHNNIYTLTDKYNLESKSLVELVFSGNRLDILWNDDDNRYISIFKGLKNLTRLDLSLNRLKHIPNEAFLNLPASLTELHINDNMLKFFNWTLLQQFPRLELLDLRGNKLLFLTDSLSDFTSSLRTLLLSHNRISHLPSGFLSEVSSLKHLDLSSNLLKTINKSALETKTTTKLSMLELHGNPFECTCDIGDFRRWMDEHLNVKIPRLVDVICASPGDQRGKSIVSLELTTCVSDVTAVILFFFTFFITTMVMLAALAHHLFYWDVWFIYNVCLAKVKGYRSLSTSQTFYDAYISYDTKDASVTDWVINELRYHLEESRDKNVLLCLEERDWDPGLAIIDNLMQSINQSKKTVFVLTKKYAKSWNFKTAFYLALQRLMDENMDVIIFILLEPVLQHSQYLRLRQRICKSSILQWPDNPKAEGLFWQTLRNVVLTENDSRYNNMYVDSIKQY
Outline: (§1)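 HEK-Blue cells with NF-κB/AP-1-driven SEAP reporter; compounds 0.05 nM-50 μM, 30 min pre-treatment at room temperature, then agonist: gardiquimod 7.5 μM (TLR7), R848 15.9 μM (TLR8) or ODN2006 5 nM (TLR9). SEAP read after 22 h at 37 °C; percent inhibition versus agonist-plus-DMSO and reference-inhibitor wells.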

[2] = target: T2, human TLR7 (Homo sapiens, UniProt Q9NYK1); experiment: TLR7 inhibition reporter assay (HEK-Blue SEAP); settings: HEK-Blue cells overexpressing human TLR7, stimulated with gardiquimod 7.5 μM, 22 hour incubation
T2 construct: host or cells: HEK-Blue cells
T2 sequence (Q9NYK1 27-1049): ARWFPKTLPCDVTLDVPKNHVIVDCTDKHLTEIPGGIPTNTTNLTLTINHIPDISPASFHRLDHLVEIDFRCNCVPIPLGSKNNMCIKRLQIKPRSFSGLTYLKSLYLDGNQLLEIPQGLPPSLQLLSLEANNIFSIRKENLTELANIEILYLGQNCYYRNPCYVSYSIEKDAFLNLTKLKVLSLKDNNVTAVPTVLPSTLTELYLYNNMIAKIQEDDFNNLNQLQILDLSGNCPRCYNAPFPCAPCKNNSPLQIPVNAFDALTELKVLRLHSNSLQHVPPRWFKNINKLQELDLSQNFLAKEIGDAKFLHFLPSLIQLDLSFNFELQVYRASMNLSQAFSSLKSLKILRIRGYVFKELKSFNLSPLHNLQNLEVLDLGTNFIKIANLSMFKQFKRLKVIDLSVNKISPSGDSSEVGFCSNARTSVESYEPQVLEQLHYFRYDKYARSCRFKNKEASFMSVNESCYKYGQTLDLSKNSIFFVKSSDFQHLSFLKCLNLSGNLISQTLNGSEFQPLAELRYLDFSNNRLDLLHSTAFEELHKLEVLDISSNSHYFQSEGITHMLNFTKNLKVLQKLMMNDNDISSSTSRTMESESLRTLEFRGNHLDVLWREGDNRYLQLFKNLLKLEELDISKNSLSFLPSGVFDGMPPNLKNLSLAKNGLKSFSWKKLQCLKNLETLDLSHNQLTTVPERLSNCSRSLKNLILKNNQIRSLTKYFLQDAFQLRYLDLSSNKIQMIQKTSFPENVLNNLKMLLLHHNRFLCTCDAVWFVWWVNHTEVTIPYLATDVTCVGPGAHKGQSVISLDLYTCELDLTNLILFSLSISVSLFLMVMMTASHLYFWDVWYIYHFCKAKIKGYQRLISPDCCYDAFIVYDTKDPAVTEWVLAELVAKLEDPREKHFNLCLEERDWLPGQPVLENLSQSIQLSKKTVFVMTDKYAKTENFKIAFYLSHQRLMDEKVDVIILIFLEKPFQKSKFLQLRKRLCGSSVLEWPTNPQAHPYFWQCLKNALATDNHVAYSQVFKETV
Outline: as §1

[3] = target: T3, human TLR9 (Homo sapiens, UniProt Q9NR96); experiment: TLR9 inhibition reporter assay (HEK-Blue SEAP); settings: HEK-Blue cells overexpressing human TLR9, stimulated with ODN2006 5 nM, 22 hour incubation
T3 construct: host or cells: HEK-Blue cells
T3 sequence (Q9NR96 26-1032): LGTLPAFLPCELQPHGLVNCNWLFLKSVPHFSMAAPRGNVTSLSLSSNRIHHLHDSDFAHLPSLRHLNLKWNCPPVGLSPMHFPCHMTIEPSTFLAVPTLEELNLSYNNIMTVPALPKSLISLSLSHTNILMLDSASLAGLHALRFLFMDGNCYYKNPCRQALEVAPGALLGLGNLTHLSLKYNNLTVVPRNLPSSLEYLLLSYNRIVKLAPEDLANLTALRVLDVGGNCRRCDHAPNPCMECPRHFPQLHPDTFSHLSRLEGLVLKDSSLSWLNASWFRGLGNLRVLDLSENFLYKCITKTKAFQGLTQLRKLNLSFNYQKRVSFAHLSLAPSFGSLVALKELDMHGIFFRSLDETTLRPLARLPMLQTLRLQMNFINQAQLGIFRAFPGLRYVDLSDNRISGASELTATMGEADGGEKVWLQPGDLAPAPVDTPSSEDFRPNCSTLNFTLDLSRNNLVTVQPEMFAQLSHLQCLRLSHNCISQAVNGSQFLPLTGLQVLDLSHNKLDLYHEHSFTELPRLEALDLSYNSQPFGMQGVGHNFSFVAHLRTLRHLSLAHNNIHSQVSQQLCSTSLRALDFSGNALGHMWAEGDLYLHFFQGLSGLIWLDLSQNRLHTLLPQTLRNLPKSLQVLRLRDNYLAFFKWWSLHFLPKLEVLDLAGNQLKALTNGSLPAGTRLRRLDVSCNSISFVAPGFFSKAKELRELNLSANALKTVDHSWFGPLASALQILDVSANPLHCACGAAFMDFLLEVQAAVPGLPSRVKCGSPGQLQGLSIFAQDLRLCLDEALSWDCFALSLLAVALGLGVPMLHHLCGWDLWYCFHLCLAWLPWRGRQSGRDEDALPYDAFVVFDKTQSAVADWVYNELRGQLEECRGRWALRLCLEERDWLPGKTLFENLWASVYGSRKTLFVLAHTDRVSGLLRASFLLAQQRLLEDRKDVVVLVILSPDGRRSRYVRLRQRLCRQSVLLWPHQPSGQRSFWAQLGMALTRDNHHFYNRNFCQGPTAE
Outline: as §1

Compound	IC50 [1] [nM]	IC50 [2] [nM]	IC50 [3] [nM]
COCCN1CCC(COc2ccc3[nH]c(-c4cc(C)nc(C)c4)c(C(C)C)c3c2)CC1 [Example 73, 2-(2,6-dimethylpyridin-4-yl)-3-isopropyl-5-((1-(2-methoxyethyl)piperidin-4-yl)methoxy)-1H-indole]	5.2	13.4	633
COCCN1CCC(COc2ccc3[nH]c(-c4cc(C)c(=O)n(C)c4)c(C(C)C)c3c2)CC1 [Example 74, 5-(3-isopropyl-5-((1-(2-methoxyethyl)piperidin-4-yl)methoxy)-1H-indol-2-yl)-1,3-dimethylpyridin-2(1H)-one]	3.9	20.7	29200
COCCN1CCC(Oc2ccc3[nH]c(-c4cc(C)nc(C)c4)c(C(C)C)c3c2)CC1 [Example 75, 2-(2,6-dimethylpyridin-4-yl)-3-isopropyl-5-((1-(2-methoxyethyl)piperidin-4-yl)oxy)-1H-indole]	1.5	10.5	663
Cc1cc(-c2[nH]c3ccc(OC4CCN(CC(C)C)CC4)cc3c2C(C)C)cn(C)c1=O [Example 76, 5-(5-((1-isobutylpiperidin-4-yl)oxy)-3-isopropyl-1H-indol-2-yl)-1,3-dimethylpyridin-2(1H)-one]	0.8	2.8	5570
Cc1cc(-c2[nH]c3ccc(OC4CCN(CC(C)C)CC4)cc3c2C(C)C)cn2ncnc12 [Example 77, 6-(5-((1-isobutylpiperidin-4-yl)oxy)-3-isopropyl-1H-indol-2-yl)-8-methyl-[1,2,4]triazolo[1,5-a]pyridine]	1.4	2.9	2830
Cc1cc(-c2[nH]c3ccc(OC4CCN(CCCC(F)(F)F)CC4)cc3c2C(C)C)cn(C)c1=O [Example 78, 5-(3-isopropyl-5-((1-(4,4,4-trifluorobutyl)piperidin-4-yl)oxy)-1H-indol-2-yl)-1,3-dimethylpyridin-2(1H)-one]	1.1	10.9	6310
Cc1cc(-c2[nH]c3ccc(OC4CCN(CC(=O)N(C)C)CC4)cc3c2C(C)C)cc(C)n1 [Example 79, 2-(4-((2-(2,6-dimethylpyridin-4-yl)-3-isopropyl-1H-indol-5-yl)oxy)piperidin-1-yl)-N,N-dimethylacetamide]	3.2	8	447
Cc1cc(-c2[nH]c3ccc(OCC4CCN(CC(=O)N(C)C)CC4)cc3c2C(C)C)cc(C)n1 [Example 80, 2-(4-(((2-(2,6-dimethylpyridin-4-yl)-3-isopropyl-1H-indol-5-yl)oxy)methyl)piperidin-1-yl)-N,N-dimethylacetamide]	8.5	7.7	398
Cc1cc(-c2[nH]c3ccc(OCC4CCN(CC(=O)N(C)C)CC4)cc3c2C(C)C)cn(C)c1=O [Example 81, 2-(4-(((2-(1,5-dimethyl-6-oxo-1,6-dihydropyridin-3-yl)-3-isopropyl-1H-indol-5-yl)oxy)methyl)piperidin-1-yl)-N,N-dimethylacetamide]	9.7	26.1	24900
Cc1cc(-c2[nH]c3ccc(O[C@H]4CCCN(CC(=O)N(C)C)C4)cc3c2C(C)C)cn(C)c1=O [Example 82, (S)-2-(3-((2-(1,5-dimethyl-6-oxo-1,6-dihydropyridin-3-yl)-3-isopropyl-1H-indol-5-yl)oxy)piperidin-1-yl)-N,N-dimethylacetamide]	27.6	17.3	40600
Cc1cc(-c2[nH]c3ccc(O[C@H]4CCCN(CC(=O)N(C)C)C4)cc3c2C(C)C)cn2ncnc12 [Example 83, (S)-2-(3-((3-isopropyl-2-(8-methyl-[1,2,4]triazolo[1,5-a]pyridin-6-yl)-1H-indol-5-yl)oxy)piperidin-1-yl)-N,N-dimethylacetamide]	28.2	1.8	5670
Cc1cc(-c2[nH]c3ccc(OC4CCCN(CC(=O)N(C)C)C4)cc3c2C(C)C)cn(C)c1=O (stereo not drawn) [Example 84, 2-(3-((2-(1,5-dimethyl-6-oxo-1,6-dihydropyridin-3-yl)-3-isopropyl-1H-indol-5-yl)oxy)piperidin-1-yl)-N,N-dimethylacetamide]	2.9	6.5	16900
Cc1cc(-c2[nH]c3ccc(OC4CCN(CC(=O)N(C)C)CC4)cc3c2C(C)C)cn2ncnc12 [Example 85, 2-(4-((3-isopropyl-2-(8-methyl-[1,2,4]triazolo[1,5-a]pyridin-6-yl)-1H-indol-5-yl)oxy)piperidin-1-yl)-N,N-dimethylacetamide]	2.9	2.1	1350
Cc1cc(-c2[nH]c3ccc(OCC4CCN(CC(=O)N(C)C)CC4)cc3c2C(C)C)cn2ncnc12 [Example 86, 2-(4-(((3-isopropyl-2-(8-methyl-[1,2,4]triazolo[1,5-a]pyridin-6-yl)-1H-indol-5-yl)oxy)methyl)piperidin-1-yl)-N,N-dimethylacetamide]	2.8	0.4	4380

Source: patent publication US12030878B2 (BRISTOL-MYERS SQUIBB COMPANY, priority 2017, dated 2024)
